Values belong to the compound of their own block, whether it stands above or below them.
Assays:
Plasmodium falciparum [1] = experiment: Antimalarial activity against Plasmodium falciparum 3D7 infected in human erythrocytes assessed as decrease in parasitemia after 72 hrs; assay type: functional, organism-based; conditions: 3D7, 72 h
Plasmodium falciparum [2] = experiment: Antimalarial activity against Plasmodium falciparum W2 infected in human erythrocytes assessed as decrease in parasitemia after 72 hrs; assay type: functional, organism-based; conditions: W2, 72 h
[3] = pampa
Description: Permeability of the compound assessed as amount of compound absorbed by PAMPA method

in vitro [4] = conditions: human, Caco-2
Description: Apparent permeability from apical to basolateral side in human Caco2 cells by LC/MS analysis

in vitro [5] = conditions: human, Caco-2; remark: listed apart in the source
Description: Apparent permeability from basolateral to apical side in human Caco2 cells by LC/MS analysis

in vitro [6] = conditions: mouse
Description: Metabolic stability in mouse hepatic microsomes assessed as extraction ratio by LC/MS/MS analysis

in vitro [7] = conditions: rat
Description: Metabolic stability in rat hepatic microsomes assessed as extraction ratio by LC/MS/MS analysis

in vitro [8] = conditions: human
Description: Metabolic stability in human hepatic microsomes assessed as extraction ratio by LC/MS/MS analysis

Plasmodium berghei [9] = experiment: Antimalarial activity against GFP-tagged Plasmodium berghei ANKA infected in NMRI mouse assessed as reduction in parasitemia at 30 mg/kg, po QD administered 24 hrs post infection for 3 days measured on day 4 post infection; assay type: functional; parameters: scale not given: the % may be the effect or the level left
[10] = target: Voltage-gated inwardly rectifying potassium channel KCNH2 (Homo sapiens, UniProt Q12809)
Description: Inhibition of human ERG expressed in CHO cells by Q-patch assay

in vivo [11] = conditions: female, CD1, mouse, iv, 5 mg/kg
Description: Volume of distribution in female CD1 mouse at 5 mg/kg, iv by LC/MS/MS analysis

in vivo [12] = conditions: female, CD1, mouse, iv, 5 mg/kg; remark: listed apart in the source
Description: Clearance in female CD1 mouse at 5 mg/kg, iv by LC/MS/MS analysis

in vivo [13] = conditions: female, CD1, mouse, iv, 5 mg/kg; remark: listed apart in the source
Description: Half-life in female CD1 mouse at 5 mg/kg, iv by LC/MS/MS analysis

in vivo [14] = conditions: female, CD1, mouse, plasma, iv, 5 mg/kg
in vivo [15] = conditions: female, CD1, mouse, plasma, po, 30 mg/kg
in vivo [16] = conditions: female, CD1, mouse, po, 30 mg/kg
Description: Half life in female CD1 mouse at 20 mg/kg, po by LC/MS/MS analysis

[17] = Cmax in female CD1 mouse at 30 mg/kg, po by LC/MS/MS analysis; conditions: in vivo
[18] = Tmax in female CD1 mouse at 30 mg/kg, po by LC/MS/MS analysis; conditions: in vivo
[19] = Oral bioavailability in female CD1 mouse at 30 mg/kg by LC/MS/MS analysis; conditions: female, CD1, mouse, in vivo
Plasmodium berghei [20] = experiment: Antimalarial activity against GFP-tagged Plasmodium berghei ANKA infected in NMRI mouse assessed as mouse survival at 30 mg/kg, po administered as single dose 24 hrs post infection measured 72 hrs post infection
Plasmodium berghei [21] = experiment: Antimalarial activity against GFP-tagged Plasmodium berghei ANKA infected in NMRI mouse assessed as mouse survival at 100 mg/kg, po administered as single dose 24 hrs post infection measured on day 30 post infection
Plasmodium berghei [22] = experiment: Antimalarial activity against GFP-tagged Plasmodium berghei ANKA infected in NMRI mouse assessed as reduction in parasitemia at 30 mg/kg, po administered as single dose 24 hrs post infection measured 72 hrs post infection; assay type: functional; parameters: scale not given: the % may be the effect or the level left
[23] = Cytotoxicity against human HuH7 cells; assay type: cell-based; conditions: Huh-7 cells, read-out: TC50 (the source's name)
[24] = Selectivity index, ratio TC50 for human HuH7 cells to IC50 for Plasmodium falciparum; assay type: functional, Huh-7
[25] = Selectivity index, ratio TC50 for human HeLa cells to IC50 for Plasmodium falciparum; assay type: functional
Plasmodium berghei [26] = experiment: Antimalarial activity against GFP-tagged Plasmodium berghei ANKA infected in NMRI mouse assessed as mouse survival at 30 mg/kg, po QD administered 24 hrs post infection for 3 days measured on day 30 post infection; assay type: functional

Chain of Voltage-gated inwardly rectifying potassium channel KCNH2 (Q12809 whole entry): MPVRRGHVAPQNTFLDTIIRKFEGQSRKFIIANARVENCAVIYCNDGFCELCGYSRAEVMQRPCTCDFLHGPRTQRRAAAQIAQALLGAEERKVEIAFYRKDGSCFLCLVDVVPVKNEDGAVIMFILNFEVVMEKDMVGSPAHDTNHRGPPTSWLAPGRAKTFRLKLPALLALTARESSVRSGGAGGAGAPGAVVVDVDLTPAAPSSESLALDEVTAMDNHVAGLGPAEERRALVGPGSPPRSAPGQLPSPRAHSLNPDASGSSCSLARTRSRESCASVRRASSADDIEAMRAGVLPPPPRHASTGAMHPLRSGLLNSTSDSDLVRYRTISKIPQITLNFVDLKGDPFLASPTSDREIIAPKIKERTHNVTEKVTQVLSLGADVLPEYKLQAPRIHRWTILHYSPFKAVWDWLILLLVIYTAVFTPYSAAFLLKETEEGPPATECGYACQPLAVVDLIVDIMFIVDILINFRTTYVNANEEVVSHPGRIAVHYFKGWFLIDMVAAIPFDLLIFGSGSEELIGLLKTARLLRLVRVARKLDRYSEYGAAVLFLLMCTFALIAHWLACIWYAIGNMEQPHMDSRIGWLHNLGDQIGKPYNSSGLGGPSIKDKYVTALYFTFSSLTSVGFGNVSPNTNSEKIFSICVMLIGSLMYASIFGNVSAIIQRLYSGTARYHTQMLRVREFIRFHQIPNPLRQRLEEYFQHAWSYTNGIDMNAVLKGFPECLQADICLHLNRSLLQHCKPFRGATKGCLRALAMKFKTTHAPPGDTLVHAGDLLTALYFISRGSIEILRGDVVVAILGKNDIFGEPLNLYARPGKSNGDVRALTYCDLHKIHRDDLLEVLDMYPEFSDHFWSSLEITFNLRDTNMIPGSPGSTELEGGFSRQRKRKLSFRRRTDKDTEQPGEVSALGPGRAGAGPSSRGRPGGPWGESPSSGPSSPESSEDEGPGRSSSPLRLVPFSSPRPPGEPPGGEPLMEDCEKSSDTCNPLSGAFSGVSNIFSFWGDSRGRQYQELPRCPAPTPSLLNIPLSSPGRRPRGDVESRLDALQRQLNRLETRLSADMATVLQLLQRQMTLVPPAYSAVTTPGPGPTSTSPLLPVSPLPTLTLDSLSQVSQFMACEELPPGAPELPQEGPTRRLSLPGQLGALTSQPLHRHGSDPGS

Compound: CC(C)(N)C(=O)N1CCn2c(nc(-c3ccccc3F)c2Nc2ccc(F)cc2)C1
- IC50 (Plasmodium falciparum [1]): 1390 nM
- IC50 (Plasmodium falciparum [2]): 1280 nM

Compound: CC(C)(N)C(=O)N1CCn2c(nc(-c3ccc(F)cc3)c2Nc2cc(F)cc(F)c2)C1
- IC50 (Plasmodium falciparum [1]): 220 nM
- IC50 (Plasmodium falciparum [2]): 244 nM

Compound: CC(C)(N)C(=O)N1CCn2c(nc(-c3ccc(F)cc3)c2Nc2cccnc2)C1
- IC50 (Plasmodium falciparum [1]): 1410 nM
- IC50 (Plasmodium falciparum [2]): 3320 nM

Compound: NCC(=O)N1CCn2c(nc(-c3ccc(F)cc3)c2Nc2ccc(Cl)cc2)C1
- IC50 (Plasmodium falciparum [1]): 10 nM
- IC50 (Plasmodium falciparum [2]): 9 nM
- permeability [3]: 52%
- Papp A→B (in vitro [4]): 0.44 ×10⁻⁶ cm/s
- Papp B→A (in vitro [5]): 1.25 ×10⁻⁶ cm/s
- hepatic extraction ratio (in vitro [6]; liver microsomes): 0.17
- hepatic extraction ratio (in vitro [7]; liver microsomes): 0.63
- hepatic extraction ratio (in vitro [8]; liver microsomes): 0.55

Compound: CC(C)(N)C(=O)N1CCn2c(nc(-c3ccc(F)cc3)c2Nc2ccc(Cl)c(F)c2)C1
- IC50 (Plasmodium falciparum [1]): 40 nM
- IC50 (Plasmodium falciparum [2]): 52 nM
- Activity (Plasmodium berghei [9]): 99.8%
- IC50 [10]: 5600 nM
- permeability [3]: 94%
- Vd (in vivo [11]): 1.7 L/kg
- clearance (in vivo [12]): 5.8 mL/min/kg
- half-life (in vivo [13]): 7.8 h
- AUC(0-inf) (in vivo [14]): 25.5 µM·h
- AUC(0-inf) (in vivo [15]): 36.7 µM·h
- half-life (in vivo [16]): 9.1 h
- Papp A→B (in vitro [4]): 0.84 ×10⁻⁶ cm/s
- Papp B→A (in vitro [5]): 0.87 ×10⁻⁶ cm/s
- hepatic extraction ratio (in vitro [6]; microsomes): 0.76
- hepatic extraction ratio (in vitro [7]; microsomes): 0.67
- hepatic extraction ratio (in vitro [8]; microsomes): 0.48
- Cmax [17]: 3320 nM
- Tmax [18]: 2 h
- bioavailability [19]: 24%
- Survival (Plasmodium berghei [20]): 7 days
- Survival (Plasmodium berghei [21]): 11 days

Compound: CC(C)(N)C(=O)N1CCn2c(nc(-c3ccc(F)cc3)c2Nc2ccc(F)cc2F)C1
- IC50 (Plasmodium falciparum [1]): 110 nM
- IC50 (Plasmodium falciparum [2]): 90 nM

Compound: NCC(=O)N1CCn2c(nc(-c3ccc(Cl)cc3)c2Nc2ccc(F)cc2)C1
- IC50 (Plasmodium falciparum [1]): 660 nM
- IC50 (Plasmodium falciparum [2]): 437 nM

Compound: COc1ccc(-c2nc3n(c2Nc2ccc(F)cc2)CCN(C(=O)CN)C3)cc1
- IC50 (Plasmodium falciparum [1]): 2270 nM
- IC50 (Plasmodium falciparum [2]): 1700 nM

Compound: Cc1ccc(-c2nc3n(c2Nc2ccc(F)cc2)CCN(C(=O)CN)C3)cc1
- IC50 (Plasmodium falciparum [1]): 3140 nM
- IC50 (Plasmodium falciparum [2]): 3360 nM

Compound: NCC(=O)N1CCn2c(nc(-c3cccc(F)c3)c2Nc2ccc(F)cc2)C1
- IC50 (Plasmodium falciparum [1]): 10 nM
- IC50 (Plasmodium falciparum [2]): 30 nM
- Activity (Plasmodium berghei [22]): 86%
- Activity (Plasmodium berghei [9]): 99.7%
- IC50 [10]: > 30000 nM
- Vd (in vivo [11]): 21.6 L/kg
- clearance (in vivo [12]): 192 mL/min/kg
- half-life (in vivo [13]): 1.8 h
- AUC(0-inf) (in vivo [14]): 1.23 µM·h
- AUC(0-inf) (in vivo [15]): 1.33 µM·h
- half-life (in vivo [16]): 1 h
- Papp A→B (in vitro [4]): 0.56 ×10⁻⁶ cm/s
- Papp B→A (in vitro [5]): 2.32 ×10⁻⁶ cm/s
- hepatic extraction ratio (in vitro [6]; liver microsomes): 0.31
- Cmax [17]: 417 nM
- Tmax [18]: 2 h
- bioavailability [19]: 18%
- Survival (Plasmodium berghei [20]): 6 days
- Survival (Plasmodium berghei [21]): 10 days

Compound: Cc1ccc(Nc2c(-c3ccc(F)c(F)c3)nc3n2CCN(C(=O)C(C)(C)N)C3)cc1
- IC50 (Plasmodium falciparum [1]): 60 nM
- IC50 (Plasmodium falciparum [2]): 50 nM

Compound: CC(C)(N)C(=O)N1CCn2c(nc(-c3ccc(F)cc3)c2NC2CCCCC2)C1
- IC50 (Plasmodium falciparum [1]): 9610 nM
- IC50 (Plasmodium falciparum [2]): 5980 nM

Compound: Fc1ccc(Nc2c(-c3ccc(F)cc3)nc3cnccn23)cc1
- IC50 (Plasmodium falciparum [1]): > 10 nM
- IC50 (Plasmodium falciparum [2]): 5520 nM

Compound: Fc1ccc(Nc2c(-c3ccc(F)cc3)nc3n2CCNC3)cc1
- IC50 (Plasmodium falciparum [1]): 200 nM
- IC50 (Plasmodium falciparum [2]): 175 nM

Compound: C[C@@H]1CC[C@H]2[C@@H](C)C(=O)O[C@@H]3O[C@@]4(C)CC[C@@H]1[C@]32OO4 [ARTEMISININ]
- IC50 (Plasmodium falciparum [1]): 12 nM

Compound: C[C@H]1[C@H](OC(=O)CCC(=O)O)O[C@@H]2O[C@@]3(C)CC[C@H]4[C@H](C)CC[C@@H]1[C@@]24OO3 [ARTESUNATE]
- Activity (Plasmodium berghei [22]): 89%
- Activity (Plasmodium berghei [9]): 97%
- Survival (Plasmodium berghei [20]): 7.2 days
- Survival (Plasmodium berghei [21]): 6.7 days

Compound: CCN(CC)CCCC(C)Nc1ccnc2cc(Cl)ccc12 (centres undefined) [CHLOROQUINE]
- Activity (Plasmodium berghei [9]): >99.9%
- Survival (Plasmodium berghei [26]): 18.8 days
- Survival (Plasmodium berghei [20]): 8.7 days
- Survival (Plasmodium berghei [21]): 12 days

Compound: CCc1nc(N)nc(N)c1-c1ccc(Cl)cc1 [PYRIMETHAMINE]
- IC50 (Plasmodium falciparum [2]): > 10000 nM

Further lines, with some results ahead:

- IC50 (Plasmodium falciparum [1]): 50 nM
- IC50 (Plasmodium falciparum [2]): 34 nM
Compound: NCC(=O)N1CCn2c(nc(-c3ccc(F)cc3)c2Nc2cccc(F)c2)C1

- IC50 (Plasmodium falciparum [1]): 30 nM
- IC50 (Plasmodium falciparum [2]): 23 nM
- Papp A→B (in vitro [4]): 0.99 ×10⁻⁶ cm/s
- Papp B→A (in vitro [5]): 2.99 ×10⁻⁶ cm/s
- hepatic extraction ratio (in vitro [6]; liver microsomes): 0.21
- hepatic extraction ratio (in vitro [7]; liver microsomes): 0.38
- hepatic extraction ratio (in vitro [8]; liver microsomes): 0.21
Compound: NCC(=O)N1CCn2c(nc(-c3ccc(F)cc3)c2Nc2ccc(F)c(F)c2)C1

- IC50 (Plasmodium falciparum [1]): 110 nM
- IC50 (Plasmodium falciparum [2]): 121 nM
Compound: N[C@@H](Cc1ccccc1)C(=O)N1CCn2c(nc(-c3ccc(F)cc3)c2Nc2ccc(F)cc2)C1

- IC50 (Plasmodium falciparum [1]): 70 nM
- IC50 (Plasmodium falciparum [2]): 59 nM
Compound: N[C@H](Cc1ccccc1)C(=O)N1CCn2c(nc(-c3ccc(F)cc3)c2Nc2ccc(F)cc2)C1

- IC50 (Plasmodium falciparum [1]): 200 nM
- IC50 (Plasmodium falciparum [2]): 168 nM
Compound: CC(C)(N)C(=O)N1CCn2c(nc(-c3ccccc3)c2Nc2ccc(F)cc2)C1

- IC50 (Plasmodium falciparum [1]): 20 nM
- IC50 (Plasmodium falciparum [2]): 23 nM
- permeability [3]: 52%
- Vd (in vivo [11]): 12.3 L/kg
- clearance (in vivo [12]): 189 mL/min/kg
- half-life (in vivo [13]): 2.7 h
- AUC(0-inf) (in vivo [14]): 1.07 µM·h
- AUC(0-inf) (in vivo [15]): 0.965 µM·h
- half-life (in vivo [16]): 4.2 h
- Papp A→B (in vitro [4]): 0.7 ×10⁻⁶ cm/s
- Cmax [17]: 234 nM
- Tmax [18]: 2 h
- bioavailability [19]: 15%
Compound: NCC(=O)N1CCn2c(nc(-c3ccc(F)cc3)c2Nc2ccc(F)cc2)C1

- IC50 (Plasmodium falciparum [1]): 70 nM
- IC50 (Plasmodium falciparum [2]): 75 nM
Compound: NCCC(=O)N1CCn2c(nc(-c3ccc(F)cc3)c2Nc2ccc(F)cc2)C1

- IC50 (Plasmodium falciparum [1]): 90 nM
- IC50 (Plasmodium falciparum [2]): 64 nM
Compound: C[C@H](N)C(=O)N1CCn2c(nc(-c3ccc(F)cc3)c2Nc2ccc(F)cc2)C1

- IC50 (Plasmodium falciparum [1]): 30 nM
- IC50 (Plasmodium falciparum [2]): 24 nM
Compound: CC(C)[C@H](N)C(=O)N1CCn2c(nc(-c3ccc(F)cc3)c2Nc2ccc(F)cc2)C1

- IC50 (Plasmodium falciparum [1]): 235 nM
- IC50 (Plasmodium falciparum [2]): 271 nM
Compound: NC(Cc1ccccc1)C(=O)N1CCn2c(nc(-c3ccccc3)c2Nc2ccc3c(c2)OCO3)C1 (racemic)
- CC50 [23]: > 10000 nM
- Selectivity Index [24]: >20
- Selectivity Index [25]: >20

- IC50 (Plasmodium falciparum [1]): 116 nM
- IC50 (Plasmodium falciparum [2]): 119 nM
Compound: CC(C)CC(N)C(=O)N1CCn2c(nc(-c3ccccc3)c2Nc2ccc3c(c2)OCO3)C1 (racemic)
- CC50 [23]: > 10000 nM
- Selectivity Index [24]: >20
- Selectivity Index [25]: >20

Source: ChEMBL document CHEMBL1800027, “Imidazolopiperazines: hit to lead optimization of new antimalarial agents” (J Med Chem, 2011)
